Results published in US20040038861A1, “Methods and compositions for normalizing lipid levels in mammalian tissues” (priority 2001, published 2004).

How the values were obtained:
[1] = system: soleus muscle; assay: Triglyceride and free fatty acid content (enzymatic) in isolated soleus muscle of rats fed high fat diets; type: cell-based, rat; settings: 1 h
Source text: (§1) High-fatted rats. Groups of male Wistar rats (n=21/diet) were ad libitum fed high-fat diets containing standard rat chow to which 40% (w/w) of lard, corn oil or olive oil had been added, from the time of weaning (age=21 d) until sacrifice at 50 d. Triacylglycerol from lard contains predominantly saturated fatty acids; that from corn oil […], see Table 4.
(§2) Soleus muscle tissue isolation and incuhation.Immersion and incubation media was Krebs-Henseleit buffer (KHB) containing 118.5 mM NaCl, 4.75 mM KCl, 1.18 mM MgSO4.7H2O and KH2PO4, 24.8 mM NaHCO3, 2.54 mM CaCl2 and 10 mM d-glucose. The medium was gassed continuously with 95% O2/5% CO2. […] Soleus muscles of both legs were excised keeping the tissue immersed in KHB; muscles were separated into two equal parts and transferred to the incubation flasks. At the completion of incubation the muscles were snap frozen in liquid nitrogen, and then trimmed of connective tissue and all visible fat. The muscle strips were stored at −80° C. until analysis.
(§3) Lipid extraction and chromatographic separation of fatty acids. Total lipids were extracted from muscle strips by a modified version of the method of Bligh and Dyer (Gorski et al., 1988, Mol & Cell Biochem 178:113-118; 1. Bligh et al., 1959, Can J Biochem Physiol 37: 911-917). Muscles were homogenised (Soniprep 150) in 0.4 ml of deionised water. Solvent volumes used herein were varied according to the water content of the muscle (ie muscle weight) as described (Bligh & Dyer, supra). 2 vols of methanol containing 0.005% butylated hydroxy toluene (BHT) and 1 vol chloroform were added to the muscle suspension. Homogenates were vortexed at maximum speed for 2 minutes and centrifuged at 2,500 g for 4 minutes. Supernatants were recovered and pellets re-extracted with 2 vol methanol, 1 vol chloroform and 0.8 vol 0.2 N HCl. Residues were vortexed for 2 min then centrifuged at 3,500 g for 3 min. After centrifugation the combined supernatants were diluted with 2v each of milli Q water and chloroform and the phases separated by centrifugation at 3,500 g for 4 minutes. The lower chloroform phase was recovered, neutralised by dropwise addition of 0.2 N methanolic NH4OH and evaporated down in a stream of N2. The samples were stored at −80° C. until required.
(§4) Aminopropyl phase (250 mg) was packed into 16 ml teflon columns with teflon frits placed at the top and bottom of the bonded phase. Columns were placed in a Vac Elut apparatus and washed twice with 2 ml portions of hexane (Prasad et al., 1988, J Chromato 428: 221-228; Kaluzny et al., 1985, J Lipid Res 26: 135-140). The dry lipid samples were taken up in two 0.150 ml portions of chloroform and applied to the column under atmospheric pressure. After adsorption the neutral lipids were eluted with 4 ml of chloroform-2-propanol (2:1, v/v) and the free fatty acids eluted with 4 ml of 2% acetic acid in diethyl ether. The solvent containing the free fatty acids was dried under a stream of N2.
Determination of tissue free fatty acids and triacylglycerol concentration by enzymatic analyses. Free fatty acids were separated from total lipid, evaporated under a stream of N2 and stored at −80° C. until analysis. Samples were dissolved in 50 μl of warm ethanol (35-40° C.), and 0.625 ml of a Triton X-100 (6% w/v) solution was added once the ethanol reached room temperature. The solution was stirred for 30 min, then made up to 0.825 ml with the Triton solution. Free fatty acids were quantified using a commercial method (Boehringer Mannheim) adapted for micro analyses (Cobas Mira, Roche Diagnostics), with palmitic acid standards. Triacyl glycerol levels were quantified in the total lipid fraction (Pointe Scientific) with a glycerol standard.
Total lipid was extracted and quantitated. Results are shown in FIGS. 18A NEFA and 18B triglyceride.

[2] = system: soleus muscle; assay: Lipid metabolites (free fatty acid, glycerol, triglyceride; enzymatic analysis) in isolated soleus muscle from normally fed rats; type: cell-based, rat
[3] = system: soleus muscle; assay: Individual free fatty acids by gas chromatography in soleus muscle of rats fed high fat diets; set-up: species or system rat; settings: 1 hour, GC
Source text: as §1, §2, §3, §4
Gas-liquid chromatographic analysis. Dry free fatty acid residues were processed for derivatisation of methyl esters by the boron trifluoride-methanol method (Prasad, supra). 1 ml of boron trifluoride in methanol (BF3) was added to each sample, the sample vials were heated at 70° C. for 5 minutes, shaken vigorously, and baked for a further 10 minutes. Once the samples reached room temperature 0.5 ml milli Q water was added, the sample vials shaken, 0.1 ml heptane was added and the sample shaken again. 0.05 ml of the top heptane layer was removed for GLC analysis. A Model HP5890 Plus Series 2 (Hewlett-Packard) gas chromatograph equipped with a DB-225 column was used to separate the methyl esters of the fatty acids and a Model HP 5890 GC with a Model HP 5973 MS (Hewlett-Packard) GC/MS used to confirm the identity of individual free fatty acids. […]

[4] = rats fed diet high in olive oil

Substance: Rat amylin
- soleus muscle triglyceride content ([1]; diet with 40% added lard, 100 nM amylin or CGRP-1, 4.4 μM norepinephrine, control 1.14±0.16): 0.71 ± 0.07 µmol/g
- soleus muscle free fatty acid content ([1]; diet with 40% added lard, 100 nM amylin or CGRP-1, 4.4 μM norepinephrine, control 43±8): 102 ± 12 nmol/g
- soleus muscle triglyceride content ([1]; diet with 40% corn oil, 100 nM, control 0.89±0.06 μmol/g): 0.49±0.07 [mol/g
- soleus muscle free fatty acid content ([1]; diet with 40% corn oil, 100 nM, control 35±4): 75 ± 9 nmol/g
- soleus muscle triglyceride content ([1]; diet with 40% olive oil, 100 nM, control 0.83±0.1): 0.44 ± 0.4 µmol/g
- soleus muscle free fatty acid content ([1]; diet with 40% olive oil, 100 nM, control 15±3): 85 ± 12 nmol/g
- soleus muscle free fatty acid content, agonist alone ([2]; 100 nM, 1 h, normal-fed rats (FIG. 3A, 3B)): 216 ± 26 nmol/g
- triacylglycerol (triglyceride) content ([2]; soleus, normally fed rats, 60-min, 100 nM amylin or CGRP-1, 4.4 μM norepinephrine, control 1.17±0.15, not significant): 1.7 ± 0.26 µmol/g
- intramuscular free fatty acid content ([2]; soleus, normally fed rats, 1 h, 100 nM amylin or CGRP-1, 4.4 μM norepinephrine, 23.7 nM insulin, control 78±21): 216 ± 22 nmol/g
- intramuscular glycerol content ([2]; soleus, normally fed rats, 1 h, 100 nM amylin or CGRP-1, 4.4 μM norepinephrine, control 0.07±0.007): 0.03 ± 0.004 nmol/g
- free fatty acid adrenic C22:4 ([3]; rats fed diet high in corn oil): 0.03 ± 0.003 nmol/g wwt
- free fatty acid arachidic C20:0 ([3]; rats fed diet high in corn oil): 0.04 ± 0.002 nmol/g wwt
- free fatty acid arachidonic C20:4 ([3]; rats fed diet high in corn oil): 0.04 ± 0.002 nmol/g wwt
- free fatty acid cervonic C22:6 ([3]; rats fed diet high in corn oil): 0.03 ± 0.002 nmol/g wwt
- free fatty acid linoleic C18:2 ([3]; rats fed diet high in corn oil): 0.18 ± 0.02 nmol/g wwt
- free fatty acid linolenic C18:3 ([3]; rats fed diet high in corn oil): 0.16 ± 0.02 nmol/g wwt
- free fatty acid margaric C17:0 ([3]; rats fed diet high in corn oil): 0.02 ± 0.0009 nmol/g wwt
- free fatty acid myristic C14:0 ([3]; rats fed diet high in corn oil): 0.04 ± 0.006 nmol/g wwt
- free fatty acid oleic C18:1 ([3]; rats fed diet high in corn oil): 0.13 ± 0.01 nmol/g wwt
- free fatty acid palmitic C16:0 ([3]; rats fed diet high in corn oil): 0.12 ± 0.01 nmol/g wwt
- free fatty acid palmitoleic (n-7) C16:1 ([3]; rats fed diet high in corn oil): 0.01 ± 0.0008 nmol/g wwt
- free fatty acid palmitoleic (n-9) C16:1 ([3]; rats fed diet high in corn oil): 0.19 ± 0.008 nmol/g wwt
- free fatty acid pentadecanoic C15:0 ([3]; rats fed diet high in corn oil): 0.05 ± 0.007 nmol/g wwt
- free fatty acid stearic C18:0 ([3]; rats fed diet high in corn oil): 0.14 ± 0.008 nmol/g wwt
- free fatty acid timnodonic C20:5 ([3]; rats fed diet high in corn oil): 0.05 ± 0.007 nmol/g wwt
- free fatty acid vaccenic C18:1 ([3]; rats fed diet high in corn oil): 0.02 ± 0.002 nmol/g wwt
- free fatty acid adrenic C22:4 ([3]; rats fed diet high in lard): 0.03 ± 0.005 nmol/g wwt
- free fatty acid arachidic C20:0 ([3]; rats fed diet high in lard): 0.06 ± 0.007 nmol/g wwt
- free fatty acid arachidonic C20:4 ([3]; rats fed diet high in lard): 0.01 ± 0.0005 nmol/g wwt
- free fatty acid cervonic C22:6 ([3]; rats fed diet high in lard): 0.02 ± 0.002 nmol/g wwt
- free fatty acid linoleic C18:2 ([3]; rats fed diet high in lard): 0.29 ± 0.004 nmol/g wwt
- free fatty acid margaric C17:0 ([3]; rats fed diet high in lard): 0.08 ± 0.01 nmol/g wwt
- free fatty acid myristic C14:0 ([3]; rats fed diet high in lard): 0.05 ± 0.01 nmol/g wwt
- free fatty acid oleic C18:1 ([3]; rats fed diet high in lard): 0.2 ± 0.01 nmol/g wwt
- free fatty acid palmitic C16:0 ([3]; rats fed diet high in lard): 0.24 ± 0.01 nmol/g wwt
- free fatty acid palmitoleic (n-7) C16:1 ([3]; rats fed diet high in lard): 0.02 ± 0.0009 nmol/g wwt
- free fatty acid palmitoleic (n-9) C16:1 ([3]; rats fed diet high in lard): 0.02 ± 0.003 nmol/g wwt
- free fatty acid pentadecanoic C15:0 ([3]; rats fed diet high in lard): 0.12 ± 0.03 nmol/g wwt
- free fatty acid stearic C18:0 ([3]; rats fed diet high in lard): 0.35 ± 0.04 nmol/g wwt
- free fatty acid timnodonic C20:5 ([3]; rats fed diet high in lard): 0.02 ± 0.002 nmol/g wwt
- free fatty acid vaccenic C18:1 ([3]; rats fed diet high in lard): 0.02 ± 0.002 nmol/g wwt
- free fatty acid adrenic C22:4 [3, 4]: 0.05 ± 0.008 nmol/g wwt
- free fatty acid arachidic C20:0 [3, 4]: 0.04 ± 0.005 nmol/g wwt
- free fatty acid arachidonic C20:4 [3, 4]: 0.03 ± 0.007 nmol/g wwt
- free fatty acid cervonic C22:6 [3, 4]: 0.08 ± 0.02 nmol/g wwt
- free fatty acid linoleic C18:2 [3, 4]: 0.02 ± 0.004 nmol/g wwt
- free fatty acid linolenic C18:3 [3, 4]: 0.01 ± 0.002 nmol/g wwt
- free fatty acid margaric C17:0 [3, 4]: 0.02 ± 0.003 nmol/g wwt
- free fatty acid myristic C14:0 [3, 4]: 0.01 ± 0.001 nmol/g wwt
- free fatty acid oleic C18:1 [3, 4]: 0.34 ± 0.04 nmol/g wwt
- free fatty acid palmitic C16:0 [3, 4]: 0.18 ± 0.01 nmol/g wwt
- free fatty acid palmitoleic (n-7) C16:1 [3, 4]: 0.02 ± 0.001 nmol/g wwt
- free fatty acid palmitoleic (n-9) C16:1 [3, 4]: 0.29 ± 0.03 nmol/g wwt
- free fatty acid pentadecanoic C15:0 [3, 4]: 0.04 ± 0.005 nmol/g wwt
- free fatty acid stearic C18:0 [3, 4]: 0.18 ± 0.02 nmol/g wwt
- free fatty acid timnodonic C20:5 [3, 4]: 0.02 ± 0.003 nmol/g wwt
- free fatty acid vaccenic C18:1 [3, 4]: 0.13 ± 0.02 nmol/g wwt
